Laboratory results taken from US20070232492A1, “Herbicidal Composition” (Ishihara Sangyo Kaisha, LTD., priority 2004, published 2007).
Like-named read-outs stand apart in the source and are kept apart here.

Legend:
[1] = tested on: barnyardgrass (Echinochloa oryzicola vasing); experiment: Growth inhibition of barnyardgrass in paddy soil pots, application under submerged condition, visual rating (observed value) and Colby expected value; format: in vivo; settings: for inhibition at 150 g/ha / inhibition at 300 g/ha / inhibition at 100 g/ha / inhibition at 200 g/ha: Echinochloa oryzicola, soil, 504 h; for inhibition at 150 g/ha: read-out: Growth inhibition rate (%) Observed, 1.5 g/a; for inhibition at 100 g/ha: 1 g/a; for inhibition at 100 g/ha / inhibition at 200 g/ha: read-out: Growth inhibition rate (%) Observed; for inhibition at 200 g/ha: 2 g/a
Summary of the method: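 Barnyardgrass (Echinochloa oryzicola vasing) seeds were sown in paddy field soil in 1/10,000 are pots and kept irrigated at a water depth of 3.5 cm. Wettable powders of the active ingredients were diluted with water and applied under submerged conditions at the prescribed amounts. Growth was visually scored from 0% (as untreated) to 100% (complete kill), and expected values were calculated with Colby's formula.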

[2] = tested on: flatsedge (Cyperus serotinus); experiment: Growth inhibition of flatsedge (planted tubers) in paddy soil pots, application under submerged condition, visual rating and Colby expected value; format: in vivo
Summary of the method: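 Tubers grown in flooded paddy soil (3.5 cm water); compounds, alone or mixed, diluted in water and applied submerged at about 2.5-4 leaf stage. Growth inhibition rated visually 21-30 days later (0% untreated to 100% kill); expected mixture values by Colby equation.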

[3] = 2.0 to 2.5 leaf stage, 21 days after application
[4] = 2.8 to 3.2 leaf stage, 21 days after application, Test Examples 39-43

**Q.** With COCC(=O)OC(c1ncccc1S(=O)(=O)NC(=O)Nc1nc(OC)cc(OC)n1)C(C)F (stereo not shown) [Compound A2, flucetosulfuron] as the compound, how does the “Growth inhibition rate (%) Observed” value ([1]; 0.055 g/a, 2.8 to 3.2 leaf stage, 21 days after application) read?
**A.** The value was 55%.

**Q.** What about the “Growth inhibition rate (%) Observed” value ([1]; 0.083 g/a, 2.1 to 3.2 leaf stage, 21 days after application) of the same compound?
**A.** Its value is 90%.

**Q.** What about the “Growth inhibition rate (%) Observed” value ([1]; 0.083 g/a, 2.1 to 3.2 leaf stage, 22 days after application) of the same compound?
**A.** Its value is 90%.

**Q.** And the “Growth inhibition rate (%) Observed” value ([1]; 0.083 g/a, 2.5 to 3.0 leaf stage, 22 days after application)?
**A.** The value was 67%.

**Q.** What about the “Growth inhibition rate (%) Observed” value ([1]; 0.083 g/a, 2.8 to 3.2 leaf stage, 19 days after application, Test Examples 62-65) of the same compound?
**A.** Its value is 55%.

**Q.** What about the “Growth inhibition rate (%) Observed” value ([1]; 0.083 g/a, 2.8 to 3.2 leaf stage, 21 days after application) of the same compound?
**A.** Its value is 65%.

**Q.** And the “Growth inhibition rate (%) Observed” value ([1]; 0.083 g/a, 2.8 to 3.2 leaf stage, 21 days after application, Test Examples 39-43)?
**A.** The value was 55%.

**Q.** And the “Growth inhibition rate (%) Observed” value ([1]; 0.11 g/a, 2.0 to 2.5 leaf stage, 21 days after application)?
**A.** The value was 90%.

**Q.** What about the “Growth inhibition rate (%) Observed” value ([1]; 0.11 g/a, 2.1 to 3.2 leaf stage, 21 days after application) of the same compound?
**A.** Its value is 92%.

**Q.** What about the “Growth inhibition rate (%) Observed” value ([1]; 0.11 g/a, 2.1 to 3.2 leaf stage, 22 days after application) of the same compound?
**A.** Its value is 92%.

**Q.** What about the “Growth inhibition rate (%) Observed” value ([1]; 0.11 g/a, 2.4 to 3.2 leaf stage, 29 days after application, Test Example 45) of the same compound?
**A.** Its value is 96%.

**Q.** And the “Growth inhibition rate (%) Observed” value ([1]; 0.11 g/a, 2.5 to 3.0 leaf stage, 22 days after application)?
**A.** The value was 83%.

**Q.** And the “Growth inhibition rate (%) Observed” value ([1]; 0.11 g/a, 2.8 to 3.2 leaf stage, 19 days after application, Test Examples 62-65)?
**A.** Its value is 68%.

**Q.** What about the “Growth inhibition rate (%) Observed” value ([1]; 0.11 g/a, 2.8 to 3.2 leaf stage, 21 days after application) of the same compound?
**A.** Its value is 75%.

**Q.** And the “Growth inhibition rate (%) Observed” value ([1]; 0.11 g/a, 2.8 to 3.2 leaf stage, 21 days after application, Test Examples 39-43)?
**A.** The value was 70%.

**Q.** And the “Growth inhibition rate (%) Observed” value ([1]; 0.165 g/a, 2.0 to 2.5 leaf stage, 21 days after application)?
**A.** The value was 90%.

**Q.** What about the “Growth inhibition rate (%) Observed” value ([1]; 0.165 g/a, 2.1 to 3.2 leaf stage, 21 days after application) of the same compound?
**A.** Its value is 96%.

**Q.** What about the “Growth inhibition rate (%) Observed” value ([1]; 0.165 g/a, 2.1 to 3.2 leaf stage, 22 days after application) of the same compound?
**A.** Its value is 96%.

**Q.** And the “Growth inhibition rate (%) Observed” value ([1]; 0.165 g/a, 2.5 to 3.0 leaf stage, 22 days after application)?
**A.** The value was 89%.

**Q.** And the “Growth inhibition rate (%) Observed” value ([1]; 0.165 g/a, 2.8 to 3.2 leaf stage, 19 days after application, Test Examples 62-65)?
**A.** The value was 73%.

**Q.** What about the “Growth inhibition rate (%) Observed” value ([1]; 8.3 g/ha, 3 leaf stage, 22 days after application, Test Example 36) of the same compound?
**A.** The value was 67%.

**Q.** And the “Growth inhibition rate (%) Observed” value ([1]; 8.3 g/ha, 3 leaf stage, 22 days after application, Test Example 38)?
**A.** The value was 83%.

**Q.** And the “Growth inhibition rate (%) Observed” value ([1]; 11 g/ha, 3 leaf stage, 22 days after application, Test Example 36)?
**A.** Its value is 83%.

**Q.** And the “Growth inhibition rate (%) Observed” value ([1]; 11 g/ha, 3 leaf stage, 22 days after application, Test Example 38)?
**A.** Its value is 96%.

**Q.** And the “Growth inhibition rate (%) Observed” value ([1]; 16.5 g/ha, 3 leaf stage, 22 days after application, Test Example 36)?
**A.** The value was 89%.

**Q.** What about the “Growth inhibition rate (%) Observed” value ([1]; 16.5 g/ha, 3 leaf stage, 22 days after application, Test Example 38) of the same compound?
**A.** Its value is 98%.

**Q.** What about the “Growth inhibition rate (%) Observed” value ([2]; 0.0275 g/a, 2.8 to 3.2 leaf stage, 29 days after application) of the same compound?
**A.** The value was 0%.

**Q.** What about the “Growth inhibition rate (%) Observed” value ([2]; 0.15 g/a, 2.5 to 3.0 leaf stage, 30 days after application, Test Examples 46-60) of the same compound?
**A.** The value was 40%.

**Q.** And the “Growth inhibition rate (%) Observed” value ([2]; 0.2 g/a, 4 leaf stage, 21 days after application)?
**A.** Its value is 20%.

**Q.** What about the “Growth inhibition rate (%) Observed” value ([2]; 0.4 g/a, 4 leaf stage, 21 days after application) of the same compound?
**A.** Its value is 50%.

**Q.** CCS(=O)(=O)Oc1ccc2c(c1)C(C)(C)CO2 [Compound (B8.1), benfuresate] was tested. Which inhibition at 150 g/ha [1, 3] did it give?
**A.** Its inhibition at 150 g/ha is 10%.

**Q.** What about the inhibition at 150 g/ha ([1]; 3.0 to 3.3 leaf stage, 21 days after application) of the same compound?
**A.** The inhibition at 150 g/ha was 0%.

**Q.** And the inhibition at 300 g/ha ([1]; read-out: Growth inhibition rate (%) Observed, 3 g/a, 2.0 to 2.5 leaf stage, 21 days after application)?
**A.** Its inhibition at 300 g/ha is 33%.

**Q.** And the inhibition at 300 g/ha ([1]; read-out: Growth inhibition rate (%) Observed, 3.0 g/a, 3.0 to 3.3 leaf stage, 21 days after application)?
**A.** The inhibition at 300 g/ha was 0%.

**Q.** What about the inhibition at 600 g/ha ([2]; Cyperus serotinus, soil, 720 h, read-out: Growth inhibition rate (%) Observed) of the same compound?
**A.** Its inhibition at 600 g/ha is 93%.

**Q.** Which results are given for CCCOCCN(C(=O)CCl)c1c(CC)cccc1CC [Compound (B3.1), pretilachlor]?
**A.** inhibition at 100 g/ha [1, 3]: 17%; inhibition at 100 g/ha [1, 4]: 0%; inhibition at 200 g/ha [1, 3]: 33%; inhibition at 200 g/ha [1, 4]: 0%; inhibition at 400 g/ha ([2]; Cyperus serotinus, soil, 720 h, 4 g/a, 2.5 to 3.0 leaf stage, 30 days after application, Test Examples 46-60, read-out: Growth inhibition rate (%) Observed): 20%
